Measurements reported in article PMC6014988, “Precision therapeutic targeting of human cancer cell motility” (Nature Communications, 2018).
Where “and” joins values, the source holds several entries; their conditions need not be identical. Equal entries are not always repeated. Entries after “also recorded” stand apart in the source; their conditions may differ.

Key:
[1] = test system: protein phosphorylation in PC3-M and PC3 cells; experiment: KinomeView phospho-motif antibody screen; format: cell-based, human; conditions: 10 µM, 3 days, ± TGFβ
Description: The Kinoview™ and PhosphoScan™ assays were performed by Cell Signaling Technology Inc.
Supplementary Figure 10. Proteomic analysis of the effects of KBU2046 on the kinome. (a-c) Screening for effects on the kinome. PC3-M cells were pre-treated with 10 µM KBU2046, genistein or vehicle control for 3 days, then with ± TGFβ, as indicated. Resultant cell lysate, as well as lysate from tumors from mice treated with 150 mg/kg KBU2046 or control mice (from manuscript Figure 2a), were then probed with the KinomeView® panel of antibodies by Western blot. In instances where KBU2046 was inhibiting protein phosphorylation in cells and in tumors, a repeat experiment of PC3-M cells was conducted (Experiment #2). In addition to including PC3-M cells, as in Experiment #1, Experiment #2 expanded to examine effects on PC3 cells. (a) The identification of an 83 kDa band of interest (red arrows). This constitutes the only change […]
as in tumor tissue. […] (c) All […]
other Western blots of phospho-motif antibodies that were evaluated on initial screen. NI = tumor not informative; this denotes a tumor sample that yielded an abnormal coomassie blue staining pattern. Data from this sample was therefore not considered further.
(also on this page, place not known: cat #C32G12; tPE cat #2981; sRXY, FXs NI NI cat #2351; tXR cat #23C8D12; RXRXX(s/t) NI NI)
(1 picture or pasted object on this page, not shown here)

HSP90β = biological target: T1, HSP90β (Homo sapiens, UniProt P08238+Q16543); experiment: In vitro kinase assay, SGK3 phosphorylation of HSP90β; format: biochemical
T1 construct: made in house; host or cells: E. coli (HSP90β, CDC37); SGK3 purchased from Thermo Scientific #PV3859
T1 sequence (P08238 whole entry): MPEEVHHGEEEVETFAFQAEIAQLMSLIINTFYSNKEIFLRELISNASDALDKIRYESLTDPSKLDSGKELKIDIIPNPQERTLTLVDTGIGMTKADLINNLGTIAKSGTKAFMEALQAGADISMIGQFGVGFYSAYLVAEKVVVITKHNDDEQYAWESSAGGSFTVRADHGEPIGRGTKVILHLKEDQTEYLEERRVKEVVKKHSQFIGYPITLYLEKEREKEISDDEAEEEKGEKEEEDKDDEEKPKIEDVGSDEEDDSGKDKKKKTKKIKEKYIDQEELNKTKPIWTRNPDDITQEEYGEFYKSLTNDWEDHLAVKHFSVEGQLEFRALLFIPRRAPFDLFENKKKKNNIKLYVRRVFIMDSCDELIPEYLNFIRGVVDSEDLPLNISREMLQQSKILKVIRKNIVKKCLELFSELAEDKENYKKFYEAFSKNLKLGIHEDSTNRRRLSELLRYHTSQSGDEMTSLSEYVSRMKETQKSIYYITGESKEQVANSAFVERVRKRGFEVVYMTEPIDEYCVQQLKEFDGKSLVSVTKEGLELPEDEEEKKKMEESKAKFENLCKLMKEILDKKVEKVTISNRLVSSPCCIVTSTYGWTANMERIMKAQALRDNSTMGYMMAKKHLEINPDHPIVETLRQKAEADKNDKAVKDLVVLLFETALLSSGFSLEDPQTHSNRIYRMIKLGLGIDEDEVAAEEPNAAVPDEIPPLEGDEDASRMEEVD
T1 sequence (Q16543 whole entry): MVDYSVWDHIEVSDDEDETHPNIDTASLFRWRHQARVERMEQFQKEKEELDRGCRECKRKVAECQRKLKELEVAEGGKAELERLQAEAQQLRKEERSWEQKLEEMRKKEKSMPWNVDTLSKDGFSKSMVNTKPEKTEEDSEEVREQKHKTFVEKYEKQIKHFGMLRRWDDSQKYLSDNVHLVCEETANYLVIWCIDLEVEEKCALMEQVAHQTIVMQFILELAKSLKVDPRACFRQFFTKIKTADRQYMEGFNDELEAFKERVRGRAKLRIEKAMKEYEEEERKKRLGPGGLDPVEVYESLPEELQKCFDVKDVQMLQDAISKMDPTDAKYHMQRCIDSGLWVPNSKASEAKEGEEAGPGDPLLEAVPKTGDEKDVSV

[2] = biological target: T2, General transcription factor II-I (Homo sapiens, UniProt P78347); experiment: ProtoArray binding, General transcription factor II-I; conditions: 10 fold excess free KBU2046
T2 construct: purchased Invitrogen
T2 sequence (P78347 whole entry): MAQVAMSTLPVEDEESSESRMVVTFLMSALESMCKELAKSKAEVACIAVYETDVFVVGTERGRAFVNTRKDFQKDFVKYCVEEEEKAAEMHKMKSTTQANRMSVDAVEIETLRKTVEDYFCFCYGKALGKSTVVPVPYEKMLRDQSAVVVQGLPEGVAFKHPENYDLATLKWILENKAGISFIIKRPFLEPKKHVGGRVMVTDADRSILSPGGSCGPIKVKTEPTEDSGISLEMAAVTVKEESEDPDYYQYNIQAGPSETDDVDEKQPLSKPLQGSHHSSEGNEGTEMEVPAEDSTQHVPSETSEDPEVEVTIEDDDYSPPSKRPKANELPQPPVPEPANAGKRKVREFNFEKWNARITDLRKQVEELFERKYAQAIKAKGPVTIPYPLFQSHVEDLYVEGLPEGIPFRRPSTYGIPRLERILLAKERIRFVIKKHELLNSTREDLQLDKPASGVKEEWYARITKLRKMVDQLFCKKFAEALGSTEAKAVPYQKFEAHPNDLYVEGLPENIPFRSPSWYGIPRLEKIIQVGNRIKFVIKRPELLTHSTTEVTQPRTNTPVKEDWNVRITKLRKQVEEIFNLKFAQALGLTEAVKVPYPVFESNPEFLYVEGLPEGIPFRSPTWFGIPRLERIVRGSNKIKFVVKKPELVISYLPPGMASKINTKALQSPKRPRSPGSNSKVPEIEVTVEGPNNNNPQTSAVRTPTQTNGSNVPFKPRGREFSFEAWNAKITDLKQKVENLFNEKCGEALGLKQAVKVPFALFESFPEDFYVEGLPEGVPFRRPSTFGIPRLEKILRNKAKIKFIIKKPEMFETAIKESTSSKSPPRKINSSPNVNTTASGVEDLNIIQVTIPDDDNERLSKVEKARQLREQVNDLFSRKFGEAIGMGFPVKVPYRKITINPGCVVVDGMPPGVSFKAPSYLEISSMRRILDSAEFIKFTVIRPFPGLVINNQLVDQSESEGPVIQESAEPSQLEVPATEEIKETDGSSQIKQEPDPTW
Description: The ProtoArray® assay, using the Human Protein Microarray platform, was performed by Invitrogen. […]
(d) Protein array hybridization. KBU2046-biotin was hybridized to ProtoArray® Human Protein Microarray’s at 0.5 and 10 µM with and without 10 fold excess free KBU2046. We first sought proteins that met the following criteria, and did so at both 0.5 and 10 µM concentrations of KBU2046-biotin (in the absence of free KBU2046): Z-Score greater than 2.5, Z-Factor greater than 0.5, CI P-value less than 0.05, negative control value <2,000 (relative fluorescence units; RFUs), and a signal/negative control signal of >10 and >5 for 10 µM and 0.5 µM conditions, respectively. This yielded 3 proteins, shown in table, for an initial hit rate of 0.03%. We then required free KBU2046 to inhibit binding by >75%. […]
There were two additional notable findings from protein array studies. First, the positive control used in protein arrays was staurosporine. Staurosporine is similar to genistein in that both are small compound natural products that are broad spectrum kinase inhibitors. In contrast to the lack of binding by KBU2046-biotin, staurosporine bound to 214 proteins at levels that were >/= 10 fold above that of background. The vast majority of these proteins were kinases. Second, both HSP90β and CDC37 were present on the protein arrays, and were not bound by KBU2046-

estrogen receptor (ER) = experiment: Induction of estrogen-responsive genes in MCF-7 cells; format: cell-based, human
Description: RNA was isolated and qRT-PCR was performed as described by us[43], analyzed by the 2^−ΔΔCt method, using primer/probes sets (ABI), HSP90α (Hs00743767_sH), HSP90β (Hs00427665_g1), trefoil factor 1 (TFF1; Hs00907239_m1), cathepsin D (CTSD; Hs00157205_m1), progesterone receptor (PGR; Hs01556702_m1), and GAPDH (Hs99999905_m1). Assays were repeated, each in replicates of N = 2. […]
panel. KBU2046 was submitted to the Developmental Therapeutics Program (DTP) of the US National Cancer Institute (NCI), underwent initial screening across the NCI 60 cell line panel per DTP protocol 1, and the resultant COMPARE diagram is depicted above. Based upon its lack of […]
Supplementary Figure 3. […] Estrogen […]
receptor positive MCF-7 cells were cultured under hormone free conditions transfected pERE-Luc or empty control vector, along with constitutive active β-gal, grown under estrogen-free conditions, and pre-treated for 24 hours with nanomolar concentrations of estradiol, or with micromolar concentrations of genistein or KBU2046, as indicated. Luciferase activity was measured, normalized to that of β-gal, and values expressed as the percent of untreated vector control cells. Values are the mean±SD of a single experiment, with similar results seen in a separate repeat experiment, both in replicates of N=2.
(also on this page, place not known: luciferase/B-gal activity, % untreated vector control) […]

[3] = test system: human PCa PC3-M cell orthotopic implants; experiment: Murine orthotopic implantation model of human PCa, lung metastasis; format: in vivo, mouse
Description: Prostate cancer: orthotopic implantation: Orthotopic implantation of human GFP-PC3-M PCa cells into 6–8 week male Balb/c athymic mice (Charles River Laboratories) and quantification of distant metastasis was performed as described by us[37]. Treatment with KBU2046, incorporated into Harlan Teklad 2016S® chow, began 1 week prior to implantation. Animals were excluded from the analysis if they died and/or met the criteria for killing in the 7 day post-operative period. Experimental groups were randomly assigned to cages prior to the initiation of the study. Metastasis were scored in a blinded fashion. Specifically, animals were assigned an ID number, resultant histologic slides contained a separate pathological ID number, slides were scored in a random fashion, after which the two numbers were linked up.

## O=C1c2ccccc2OCC1c1ccc(F)cc1 (racemic) [KBU2046, (±)-3(4-fluorophenyl)chroman-4-one]
[1]
  changes in protein phosphorylation: only a single change
HSP90β; HSP90β, CDC37, SGK3
  SGK3-mediated phosphorylation of HSP90β: phosphorylation was further increased
HSP90β; with MAP3K6 added
  SGK3-mediated phosphorylation of HSP90β: decreases in the presence of KBU2046
[2]; 0.5 uM KBU2046-biotin
  % inhibition by competitor: 64%
[2]; 10 uM KBU2046-biotin
  % inhibition by competitor: 43%
Estrogen receptor (ER)
  activation of estrogen-responsive genes: did not activate estrogen-responsive genes; also recorded: does not activate the estrogen receptor
[3]; KBU2046 in chow, dose-dependent
  decrease in metastasis: up to 92%
[3]; at a plasma concentration of 24 nM
  suppression of metastasis: 92% and > 90%
[3]; tumor weight, mice of Fig. 2a
  primary tumor growth: does not inhibit primary tumor cell growth
